Tests used:
[1] = target: T1, GST-tagged KRAS-G12D (2-169) (Homo sapiens, UniProt P01116, G12D); assay: Nucleotide exchange assay (NEA), SOS-mediated, HTRF, KRAS G12D; assay type: biochemical; conditions: IC50 extracted at 30 min
T1 construct: GST-tagged KRAS-G12D (2-169, Reaction Biology, MSC-11-539); purchased Reaction Biology MSC-11-539 (KRAS G12D); MSC-11-502 (SOS1cat)
From the text: This activity is tightly regulated by GTPase activating proteins (GAPs) and guanine nucleotide exchange factors (GEFs). GEFs, such as SOS1/2, activate Ras proteins by exchanging GDP for GTP, thus returning Ras to its active conformation (Simanshu, Nissley, & McCormick, 2017). […] Homogenous time resolved fluorescence (HTRF) was used to detect SOS-mediated binding of a fluorescent GTP analog, GTP-DY-647P1 (Jena Biosciences NU-820-647P1) to GST-tagged KRAS-G12D (2-169, Reaction Biology, MSC-11-539) or to GST-tagged KRAS-G12V (2-169, Reaction Biology, MSC-11-540).
GST-tagged KRAS-G12D (2-169) and anti-GST MAb Tb Cryptate Gold (CisBio 61GSTTLB) were diluted into assay buffer (20 mM HEPES, pH 7.3, 150 mM NaCl, 5 mM MgCl2, 0.05% BSA 0.0025% NP40, 1 mM DTT) to prepare a 2.5× donor solution. 5× compound was added to the protein mixture and incubated for 1 h at RT. 2.5× acceptor solution containing SOSIcat (564-1049, Reaction Biology MSC-11-502) and GTP-DY-647P1 were then added to the donor KRAS mixture such that the final concentration of the reaction contained 5 nM GST-tagged KRAS-G12D (2-169), 20 nM SOScat, and 150 nM GTP. The reaction was monitored using at RT with the Envision multimode plate reader (Ex/Em 337/665, […]) up to 90 minutes at 5 minute intervals. To monitor KRAS-G12V Sos-mediated nucleotide exchange, 80 nM SOS was added to reaction instead of 20 nM. All other components were the same as previously described. Data was blanked to reactions without SOS1 and % inhibition was calculated such that DMSO only=0% and blank=100%. Curve fitting was done using a 4 parameter fit. Reported IC50 values were extracted at 30 min and 90 min for the KRAS-G12D and KRAS-G12V assays, respectively.
Curve fitting was done using a 4 parameter fit. NEA KRAS G12D IC50 (uM) values of selected compounds are depicted in Table 2 with compounds having a value <0.01 uM as ++++; >0.01 uM to 0.1 uM as +++; >0.1 uM to 1 uM as ++; >1 uM to 20 uM as +; and >20 uM as NA.

KRAS G12D/RAF1 = target: T2, KRAS G12D/RAF1 (Homo sapiens, UniProt P01116, G12D); assay: Protein-protein interaction (PPI) HTRF assay KRAS G12D/RAF1; assay type: binding
T2 construct: His6-MBP (N, cleaved yes); made in house; host or cells: E. coli
Protocol: Biotinylated KRAS wt and KRAS G12DNV proteins were expressed and purified in conditions similar to those previously reported (Tran, et al., 2021) (Zhang, et al., 2020). Briefly, KRAS (1-169) proteins were expressed in E. coli at 18° C. with an upstream TEV cleavage site (ENLFYQS (SEQ ID NO: 6)) followed an Avi tag sequence ([…] (SEQ ID NO: 7)). KRAS expression constructs contained both a His6 (SEQ ID NO: 8) and maltose-binding protein (MBP) tags at the N-terminus for Ni-NTA column purification prior to overnight TEV cleavage and MBP column purification. The avi-tagged NRAS expression construct contained both a His6 tag (SEQ ID NO: 8) and SUMO cleavage sige at the N-terminus for Ni-NTA column purification followed by His-ULPi digestion overnight. All avi-tagged RAS proteins were dialyzed into buffer containing ATP, biotin, and BirA followed by purification over a second Ni-NTA column and then run over a size exclusion HiLoad™ 26/600 Superdex™ column in 20 mM HEPES, pH 7.5, 300 mM NaCl, 5 mM MgCl2, and 1 mM TCEP. Fractions containing the protein of interest were pooled, concentrated, and confirmed by intact mass spectrometry. To prepare ‘GTP’ loaded KRAS and NRAS, biotinylated KRAS or NRAS was nucleotide exchanged from GDP-bound protein to GppNHp-bound (Jena Biosciences, NU-401-50) protein in the presence of alkaline phosphatase and excess GppNHp as previously described and the resulting nucleotide content was confirmed by HPLC reverse phase analytical chromatography (Donohue, et al., 2019) (Tran, et al., 2021).
His-tagged RAF1 (52-131) was similarly expressed in E. coli at 18° C. overnight with an upstream TEV cleavage site. His-tagged RAF1 expression construct contained both a His6 (SEQ ID NO: 8) and MBP tags at the N-terminus for Ni-NTA column purification followed by MBP-tagged TEV digestion overnight. RAF1 protein samples were further purified over a MBP column followed by a Ni-NTA column and a second MBP column. The fractions containing the protein of interest were pooled, concentrated, and further purified over a HiLoad™ 16/600 Superdex™ 75 pg size exclusion column into 20 mM HEPES, pH8.0, 200 mM NaCl, 5 mM TCEP.
When RAS proteins are in the active GTP-bound conformation, they bind the effector protein RAF1 at the N-terminus Ras-binding domain (RBD, residues 52-131) (Tran, et al., 2021). Homogenous time resolved fluorescence (HTRF) was used to monitor the interaction between wt or mutant KRAS and RAF1 or wt NRAS and RAFT. Compounds were assayed in the presence of KRAS G12D/V and RAF1 versus wt KRAS to assess activity against mutant and w.t. KRAS. Similarly, compounds were then assayed in the presence of w.t. NRAS and RAF1 to assess RAS isoform selectivity. In all assay formats, His-tagged RAF1 protein was incubated with the HTRF donor, anti-6His (“6His” disclosed as SEQ ID NO: 8) Tb Cryptate gold (Cisbio 61DB10RDF), and biotinylated RAS proteins were incubated with the HTRF acceptor, streptavidin-d2 (CisBio 610SADLA). The intensity of the fluorescence signal emitted is proportional to binding between the two proteins. The donor solution was prepared by mixing 16 nM His-tagged RAF1 in protein dilution buffer with 1:100 anti-6His (“6His” disclosed as SEQ ID NO: 8) Tb cryptate in PPI-Terbium detection buffer. 16 nM biotinylated RAS protein was diluted into protein dilution buffer (50 mM Tris-HCl pH 7.5, 150 mM NaCl, 0.1 mM MgCl2, 1 mM TCEP, 0.005% Tween20) and mixed with 1:2000 Streptavidin-d2 diluted in PPI-Terbium detection buffer (CisBio 61DBTORDF). 50× compound in DMSO was mixed with 16 nM KRAS-acceptor solution and incubated for 30 minutes at room temperature. After compound pre-incubation with KRAS, the RAF1 donor solution was added to the KRAS-acceptor solution and incubated for 1 hour at room temperature. The fluorescence signal emitted was monitored at 665 nm and 615 nm using an Envision multimode plate reader. […]

T1 sequence (P01116 2-169 isoform P01116-2 G12D): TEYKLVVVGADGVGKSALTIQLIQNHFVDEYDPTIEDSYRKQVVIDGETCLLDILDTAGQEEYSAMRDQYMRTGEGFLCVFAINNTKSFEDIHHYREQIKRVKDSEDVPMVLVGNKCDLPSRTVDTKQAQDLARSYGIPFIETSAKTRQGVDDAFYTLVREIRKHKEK
T2 sequence (P01116 with tags, fused parts or gaps isoform P01116-2 G12D): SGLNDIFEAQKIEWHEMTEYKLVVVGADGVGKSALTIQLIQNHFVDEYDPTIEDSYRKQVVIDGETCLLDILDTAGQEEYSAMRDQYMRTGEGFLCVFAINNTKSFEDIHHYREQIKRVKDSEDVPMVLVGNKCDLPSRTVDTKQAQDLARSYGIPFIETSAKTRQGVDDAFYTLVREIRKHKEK

Structure (SMILES)	IC50 ([1]; Table 2) [nM]	IC50 ([1]; Table 4) [nM]	IC50 (KRAS G12D/RAF1; Table 2) [nM]	IC50 (KRAS G12D/RAF1; Table 4) [nM]
Oc1ccc2c(c1)-c1ccccc1C21CN(c2cc(N3C[C@H]4CC[C@@H](C3)N4)nc(OC[C@@]34CCCN3C[C@H](F)C4)n2)C1 [Compound 1, 1-[6-[(1R,5S)-3,8-diazabicyclo[3.2.1]octan-3-yl]-2-[[(2R,8S)-2-fluoro-1,2,3,5,6,7-hexahydropyrrolizin-8-yl]methoxy]pyrimidin-4-yl]spiro[azetidine-3,9′-fluorene]-3′-ol]	100 to 1000	100 to 1000	10000 to 100000	10000 to 100000
C[C@@]1(O)CCCN(c2nc(OC[C@@]34CCCN3C[C@H](F)C4)nc(N3CC4(CCc5sc(N)c(C#N)c54)C3)c2F)C1 [Compound 6, 2-amino-1′-[5-fluoro-2-[[(2R,8S)-2-fluoro-1,2,3,5,6,7-hexahydropyrrolizin-8-yl]methoxy]-6-[(3R)-3-hydroxy-3-methyl-1-piperidyl]pyrimidin-4-yl]spiro[5,6-dihydrocyclopenta[b]thiophene-4,3′-azetidine]-3-carbonitrile]	–	100 to 1000	–	10000 to 100000
CO/N=C(\C)c1nn2c(c1Cl)CN(c1nc(OC[C@@]34CCCN3C[C@H](F)C4)nc(N3CC4(CCc5sc(N)c(C#N)c54)C3)c1C#N)CCC2 [Compound 20, 2-amino-1′-[6-[3-chloro-2-[(E)-N-methoxy-C-methyl-carbonimidoyl]-4,6,7,8-tetrahydropyrazolo[1,5-a][1,4]diazepin-5-yl]-5-cyano-2-[[(2R,8S)-2-fluoro-1,2,3,5,6,7-hexahydropyrrolizin-8-yl]methoxy]pyrimidin-4-yl]spiro[5,6-dihydrocyclopenta[b]thiophene-4,3′-azetidine]-3-carbonitrile]	–	< 10	–	1000 to 10000
N#Cc1c(N2C[C@H]3CC[C@@H](C2)N3)nc(OCC2(CN3CCC(F)CC3)CC2)nc1N1CC2(CCc3sc(N)c(C#N)c32)C1 [Compound 28, 2-amino-1′-[5-cyano-6-(3,8-diazabicyclo[3.2.1]octan-3-yl)-2-[[1-[(4-fluoro-1-piperidyl)methyl]cyclopropyl]methoxy]pyrimidin-4-yl]spiro[5,6-dihydrocyclopenta[b]thiophene-4,3′-azetidine]-3-carbonitrile]	–	10 to 100	–	100 to 1000
N#Cc1c(N2CCC=CCC2)nc(OC[C@@]23CCCN2C[C@H](F)C3)nc1N1CC2(CCc3sc(N)c(C#N)c32)C1 [Compound 31, 2-amino-1′-[5-cyano-2-[[(2R,8S)-2-fluoro-1,2,3,5,6,7-hexahydropyrrolizin-8-yl]methoxy]-6-(2,3,6,7-tetrahydroazepin-1-yl)pyrimidin-4-yl]spiro[5,6-dihydrocyclopenta[b]thiophene-4,3′-azetidine]-3-carbonitrile]	–	10 to 100	–	1000 to 10000
CN(C)C(=O)c1nn2c(c1Cl)CN(c1nc(OC[C@@]34CCCN3C[C@H](F)C4)nc(N3CC4(C3)c3ccccc3CCC4(F)F)c1C#N)CCC2 [Compound 35, 3-chloro-5-[5-cyano-6-(2′,2′-difluorospiro[azetidine-3,1′-tetralin]-1-yl)-2-[[(2R,8S)-2-fluoro-1,2,3,5,6,7-hexahydropyrrolizin-8-yl]methoxy]pyrimidin-4-yl]-N,N-dimethyl-4,6,7,8-tetrahydropyrazolo[1,5-a][1,4]diazepine-2-carboxamide]	–	1000 to 20000	–	> 100000
CN(C)C(=O)c1nn2c(c1Cl)CN(c1nc(OC[C@@]34CCCN3C[C@H](F)C4)nc(N3CC4(C3)C(=O)CCc3ccccc34)c1C#N)CCC2 [Compound 36, 3-chloro-5-[5-cyano-2-[[(2R,8S)-2-fluoro-1,2,3,5,6,7-hexahydropyrrolizin-8-yl]methoxy]-6-(2′-oxospiro[azetidine-3,1′-tetralin]-1-yl)pyrimidin-4-yl]-N,N-dimethyl-4,6,7,8-tetrahydropyrazolo[1,5-a][1,4]diazepine-2-carboxamide]	–	1000 to 20000	–	> 100000
N#Cc1c(N2C[C@H]3CC[C@@H](C2)N3)nc(OCc2n[nH]cc2C(F)F)nc1N1CC2(CCc3sc(N)c(C#N)c32)C1 [Compound 109, 2-amino-1′-[5-cyano-6-[(1R,5S)-3,8-diazabicyclo[3.2.1]octan-3-yl]-2-[[4-(difluoromethyl)-1H-pyrazol-3-yl]methoxy]pyrimidin-4-yl]spiro[5,6-dihydrocyclopenta[b]thiophene-4,3′-azetidine]-3-carbonitrile]	–	10 to 100	–	–
N#Cc1c(N2CCCOCC2)nc(OC[C@@]23CCCN2C[C@H](F)C3)nc1N1CC2(CCc3sc(N)c(C#N)c32)C1 [Compound 110, 2-amino-1′-[5-cyano-2-[[(2R,8S)-2-fluoro-1,2,3,5,6,7-hexahydropyrrolizin-8-yl]methoxy]-6-(1,4-oxazepan-4-yl)pyrimidin-4-yl]spiro[5,6-dihydrocyclopenta[b]thiophene-4,3′-azetidine]-3-carbonitrile]	–	10 to 100	–	–
N#Cc1c(N2CCSc3ncccc3C2)nc(OC[C@@]23CCCN2C[C@H](F)C3)nc1N1CC2(CCc3sc(N)c(C#N)c32)C1 [Compound 111, 2-amino-1′-[5-cyano-6-(3,5-dihydro-2H-pyrido[3,2-f][1,4]thiazepin-4-yl)-2-[[(2R,8S)-2-fluoro-1,2,3,5,6,7-hexahydropyrrolizin-8-yl]methoxy]pyrimidin-4-yl]spiro[5,6-dihydrocyclopenta[b]thiophene-4,3′-azetidine]-3-carbonitrile]	–	10 to 100	–	–

Source: patent publication US12145947B2, “Pyrimidine based modulators and uses thereof” (Quanta Therapeutics, Inc., priority 2022, dated 2024)
